In patent publication US7608589B2, “Peptidyl diacylglycerides” (priority 2005, dated 2009):

Test system: immunoglobulin titers (IgG and IgM) specific for M. tuberculosis
Set-up: species or system rabbits
Conditions: rabbit, in vivo, sc

For “FNNFTVSFWLRVPKVSASHLE [FNN-21, reference compound]”, the “immunoglobulin titer, average absorbance, Day 1” value was 0.14 AU 405 nm, the “immunoglobulin titer, average absorbance, Day 3” value was 0.15 AU 405 nm and the “immunoglobulin titer, average absorbance, Day 5” value was 0.13 AU 405 nm. For the same sequence, the “immunoglobulin titer, average absorbance, Day 7” value was 0.16 AU 405 nm, the “immunoglobulin titer, average absorbance, Day 10” value was 0.25 AU 405 nm and the “immunoglobulin titer, average absorbance, Day 14” value was 0.35 AU 405 nm.
